# Experimental data taken from patent US9173892B2, “Acadesine derivatives, products and compositions including same, therapeutic uses thereof, and methods for synthesizing same” (Universite Nice Sophia Antipolis, priority 2011, dated 2015).
# Like-named read-outs stand apart in the source and are kept apart here.
# Assays:
# Type in all cases: cell-based, human
# ImaR cells [1] = test: cell viability (XTT) of imatinib-resistant ImaR cells; conditions: for viability at 500 µM / IC50: Homo sapiens, XTT; for viability at 500 µM: 0.5 mM, 24 hours, read-out: percentage of viable cells; for IC50: dose-response 5, 10, 25 and 50 μM, 24 or 48 hours, Example 1 (Table 1 codes)
# Experimental: (§1) The K562 leukemic cell line is obtained from the pleural effusion of a patient with CML. This line is a good model for studying this disease. […] The K562 and ImaR cells are cultivated at 37° C. under 5% CO2 in an RPMI 1640 medium containing 5% fetal bovine serum and supplemented with sodium pyruvate and antibiotics (penicillin-streptomycin).
# (§2) FIGS. 1 to 4 reflect the study of the cell viability.
# (§3) After the addition of XTT reagent, the absorbance is measured at 490 nm.
# as §3
# caspase-9 [2] = test: caspase-9 activity (Ac-LEHD-AMC) in ImaR cells; conditions: 24 hours, imatinib 3 μM, 112 2.5 μM, 15 and 23 10 μM
# Experimental: (§4) The cells are lyzed and the caspase-9 activities are measured using 10 μg of proteins and Ac-LEHD-AMC. The fluorescence emission at 460 nm resulting from the release of AMC is then recorded.
# K562 cells [3] = test: cell viability (XTT) of imatinib-sensitive K562 cells; conditions: K562; for viability at 500 µM / IC50: Homo sapiens, XTT; for viability at 500 µM: 0.5 mM, read-out: percentage of viable cells; for IC50: dose-response 5, 10, 25 and 50 μM
# Experimental: as §1, §2, §3, §3, §3
# After adding XTT reagent, the absorbance is measured at 490 nm.
# caspase-9 [4] = test: caspase-9 activity (Ac-LEHD-AMC) in K562 cells
# Experimental: as §4
# K562 cells [5] = test: western blot of apoptosis and autophagy markers, K562 cells
# Experimental: (§5) The cells are lyzed and 35 μg of proteins are separated by SDS-PAGE (12 or 14% polyacrylamide gel) and analyzed by western blot with antibodies specific to each of the markers.
# ImaR cells [6] = test: flow cytometry analysis of the cell cycle, ImaR cells
# Experimental: (§6) The x-axis of the graph of FIG. 9 corresponds to the quantity of DNA marked with propidium iodide while the y-axis corresponds to the number of cells. […] The nucleii are marked with propidium iodide, then the proportion of cells in the different phases of the cell cycle (subG1, G0/G1, S, G2/M) is determined.
# K562 cells [7] = test: flow cytometry analysis of the cell cycle, K562 cells
# Experimental: as §6, with “nuclei” for “nucleii”
# ImaR cells [8] = test: western blot of apoptosis and autophagy markers, ImaR cells; conditions: 24 hours
# Experimental: as §5
# [9] = 5, 10, 25 and 50 μM, compounds effective at concentrations as low as 5 μM
# [10] = 24 or 48 hours, Example 1 (Table 1 codes)
# [11] = conclusion of Example 1, K562 and ImaR cells
# [12] = 24 hours, 82, 86, 112 at 2.5 μM, 15, 23, 191, 49 at 10 μM
# [13] = 24 hours, imatinib 3 μM, 112 at 2.5 μM, 15, 23, 49 at 10 μM
# [14] = 48 hours, Example 2 (Table 2 codes)
structure (smiles),measurement,setting,value
"CCOC(=O)c1nnn([C@@H]2O[C@H](COC(C)=O)[C@@H](OC(C)=O)[C@H]2OC(C)=O)c1Cl [Compound 15, 1′-(4-ethoxycarbonyl-5-chloro-[1,2,3]-triazol-1-yl)-2′,3′,5′-tri-O-acetyl-β-D-ribofuranose]",efficacy in dose-response experiment (number of viable cells),ImaR cells [1]; [9],particularly effective
same,viability at 500 µM,ImaR cells [1],< 10%
same,IC50,ImaR cells [1],~10 µM
same,caspase-9 activity,caspase-9 [2],activation
same,viability at 500 µM,K562 cells [3]; 24 hours,< 10%
same,IC50,K562 cells [3]; [10],~10 µM
same,efficacy in dose-response experiment (number of viable cells),K562 cells [3]; [9],particularly effective
same,caspase-9 activity,"caspase-9 [4]; K562, 24 hours, imatinib 3 μM, 112 2.5 μM, 15 and 23 10 μM",activation
same,pathway relaying the induced apoptosis,caspase-9 [4]; [11],intrinsic pathway
same,expression of p62/SQSTM1,"K562 cells [5]; K562, 24 hours, AICAR 1 mM, 82, 86, 112 at 2.5 μM, 15, 23, 191 at 10 μM",increase in the expression
same,LC3 cleavage (LC3-I into LC3-II),"K562 cells [5]; K562, 24 hours, AICAR 1 mM, 82, 86 at 2.5 μM, 15, 23, 191, 49 at 10 μM",cleaved
same,PARP cleavage (fragment at 85 kDa),"K562 cells [5]; K562, 24 hours, imatinib 3 μM, 112 at 2.5 μM, 15, 23, 49 at 10 μM",appearance of the characteristic cleavage fragment at 85 kDa
same,type of programmed cell death induced,K562 cells [5]; [11],combination of the two types of mechanisms
same,proportion of cells in the G2/M phase,ImaR cells [6]; [12],increase
same,cells in phase G0/G1,ImaR cells [6]; [13],reduction
same,cells in the subG1 phase,ImaR cells [6]; [13],very pronounced accumulation
same,proportion of cells in the G2/M phase,K562 cells [7]; [12],increase
same,cells in phase G0/G1,K562 cells [7]; [13],reduction
same,cells in the subG1 phase,K562 cells [7]; [13],very pronounced accumulation
same,expression of p62/SQSTM1,"ImaR cells [8]; AICAR 1 mM, 82, 86, 112 at 2.5 μM, 15, 23, 191 at 10 μM",increase in the expression
same,LC3 cleavage (LC3-I into LC3-II),"ImaR cells [8]; AICAR 1 mM, 82, 86 at 2.5 μM, 15, 23, 191, 49 at 10 μM",cleaved
same,PARP cleavage (fragment at 85 kDa),"ImaR cells [8]; imatinib 3 μM, 112 at 2.5 μM, 15, 23, 49 at 10 μM",appearance of the characteristic cleavage fragment at 85 kDa
"COC(=O)c1nnn([C@@H]2O[C@H](CO)[C@@H](O)[C@H]2O)c1I [Compound 21, 1′-(4-methoxycarbonyl-5-iodo-[1,2,3]-triazol-1-yl)-β-D-ribofuranose]",viability at 500 µM,K562 cells [3]; [14],< 20%
same,IC50,K562 cells [3]; [14],~5 µM
CCOC(=O)c1nnn(Cc2ccc3ccccc3c2)c1I [Compound 23],viability at 500 µM,ImaR cells [1],< 10%
same,IC50,ImaR cells [1],~10 µM
same,viability at 500 µM,K562 cells [3]; 24 hours,< 10%
same,IC50,K562 cells [3]; [10],~10 µM
same,IC50,K562 cells [3]; [14],~5 µM
"OC[C@H]1O[C@@H](n2nnc(-c3ccccc3)c2I)[C@H](O)[C@@H]1O [Compound 24, 1′-(4-phenyl-5-iodo-[1,2,3]-triazol-1-yl)-β-D-ribofuranose]",IC50,K562 cells [3]; [14],~5 µM
CCOC(=O)C#Cc1c(C(=O)OCC)nnn1Cc1ccc2ccccc2c1 [Compound 25],viability at 500 µM,ImaR cells [1],< 10%
same,viability at 500 µM,K562 cells [3]; 24 hours,< 10%
"C#Cc1c(C(=O)OC)nnn1[C@@H]1O[C@H](CO)[C@@H](O)[C@H]1O [Compound 29, 1′-(4-methoxycarbonyl-5-ethynyl-[1,2,3]-triazol-1-yl)-β-D-ribofuranose]",viability at 500 µM,K562 cells [3]; [14],< 20%
